*: point of attachment. DABSYL = CN(C)c1ccc(/N=N/c2ccc(S(=O)(=O)*)cc2)cc1; EDANS = O=S(=O)(O)c1cccc2c(NCCN*)cccc12
Legend:
mpl = assay: FRET analysis of mpl activity with DABCYL/EDANS-labeled peptide substrates (Listeria); type: biochemical, Listeria monocytogenes; conditions: FRET peptide probe
Description: The presence of L. monocytogenes contamination is detected by measuring the metalloprotease (mpl), which is found only in the pathogenic species of L. monocytogenes (Domann et al., infection and Immunity. 1991. January; 59(1):65-72; Mengaud et al., 1991). A series of peptides, M1 (lot 038-13/15) and P1 (lot 038-10/12), for use as synthetic substrates for mpl (Table 1) was designed and the sequences manufactured by New England Peptide (195 Kimball St., Fitchburg, Mass.). The peptides were synthesized with fluorescent groups (DABCYL and EDANS) in such a way that the active sites were not blocked. The M1 peptide is specific for L. monocytogenes at pH 5.5.
Fluorescence resonance energy transfer (FRET) is the process of a distance dependent excited state interaction in which the emission of one fluorescent molecule is coupled to the excitation of another. […] The cleavage reaction can be followed by observing either a decrease in DABCYL fluorescence or an increase in EDANS fluorescence (loss of quenching).
Determine the peptide sequence for the active site of the protease using fluorescence resonance energy transfer (FRET). Fluorescence resonance energy transfer (FRET) is the process of a distance dependent excited state interaction in which the emission of one fluorescent molecule is coupled to the excitation of another. […]

E. coli = assay: FRET peptide substrate cleavage/detection with E. coli; type: biochemical; conditions: FRET peptide probe

DABSYL-NML, SEVERE-EDANS ({DABSYL}-NMLSEVERE-{EDANS}; SMILES CSCC[C@H](NC(=O)[C@H](CC(N)=O)NS(=O)(=O)c1ccc(/N=N/c2ccc(N(C)C)cc2)cc1)C(=O)N[C@@H](CC(C)C)C(=O)N[C@@H](CO)C(=O)N[C@@H](CCC(=O)O)C(=O)N[C@H](C(=O)N[C@@H](CCC(=O)O)C(=O)N[C@@H](CCCNC(=N)N)C(=O)N[C@@H](CCC(=O)O)C(=O)NCCNc1cccc2c(S(=O)(=O)O)cccc12)C(C)C) [Peptide M1, FRET-labeled synthetic peptide substrate for mpl of L. monocytogenes (lot 038-13/15)]
Description: specificity of peptide substrate for Listeria (L. monocytogenes) (mpl; pH 5.5): Specific to | detection of the presence of E. coli by the peptide (E. coli; pH 5.5): does not significantly detect

DABSYL-ADTVEPTGAKE-EDANS ({DABSYL}-ADTVEPTGAKE-{EDANS}; SMILES CC(C)[C@H](NC(=O)[C@@H](NC(=O)[C@H](CC(=O)O)NC(=O)[C@H](C)NS(=O)(=O)c1ccc(/N=N/c2ccc(N(C)C)cc2)cc1)[C@@H](C)O)C(=O)N[C@@H](CCC(=O)O)C(=O)N1CCC[C@H]1C(=O)N[C@H](C(=O)NCC(=O)N[C@@H](C)C(=O)N[C@@H](CCCCN)C(=O)N[C@@H](CCC(=O)O)C(=O)NCCNc1cccc2c(S(=O)(=O)O)cccc12)[C@@H](C)O) [Peptide P2, FRET-labeled synthetic peptide probe]
Description: cleavage by Listeria (mpl): Not cleaved | Description: cleavage by E. coli (E. coli): Not cleaved

Source: patent publication US7244583B2, “Device for detecting bacterial contamination and method of use” (priority 2000, dated 2007)
